# Data reported in patent publication US4206235A, “Novel 2,5-dihalophenyl-β-substituted sulfone fungicides” (priority 1976, dated 1980).
# Columns and labels:
# Venturia inaequalis [1] = assay: Control of apple scab in greenhouse test, apple seedlings; type: in vivo; conditions: Barrat & Horsfall Scale, 1 = 0%, 12 = 100% leaf scabbed, 15 days after inoculation
# Aspergillus niger = assay: Halo test on plasticized PVC sheeting; type: cell-based; set-up: key to growth under the test sample (GUS): +: no reduction in growth; ±: slight reduction in growth; .-+.: moderate reduction in growth; -: complete reduction in growth
# Alternaria tenuis = assay: Halo test on plasticized PVC sheeting; type: cell-based; set-up: key to growth under the test sample (GUS): +: no reduction in growth; ±: slight reduction in growth; .-+.: moderate reduction in growth; -: complete reduction in growth; conditions: for Zone of growth inhibition (halo): brackets = growth partially suppressed
# Penicillium funiculosum = assay: Halo test on plasticized PVC sheeting; type: cell-based; set-up: key to growth under the test sample (GUS): +: no reduction in growth; ±: slight reduction in growth; .-+.: moderate reduction in growth; -: complete reduction in growth
# Paecilomyces varioti = assay: Halo test on plasticized PVC sheeting; type: cell-based; set-up: key to growth under the test sample (GUS): +: no reduction in growth; ±: slight reduction in growth; .-+.: moderate reduction in growth; -: complete reduction in growth
# Trichoderma viride = assay: Halo test on plasticized PVC sheeting; type: cell-based; set-up: key to growth under the test sample (GUS): +: no reduction in growth; ±: slight reduction in growth; .-+.: moderate reduction in growth; -: complete reduction in growth
# [2] = tested on: Cladosporium cladosporoides; assay: Halo test on plasticized PVC sheeting; type: cell-based; set-up: key to growth under the test sample (GUS): +: no reduction in growth; ±: slight reduction in growth; .-+.: moderate reduction in growth; -: complete reduction in growth
# Venturia inaequalis [3] = assay: Comparative performance of 2 compounds and 2 commercial fungicides, spray treated plants in greenhouse; type: in vivo
# Aspergillus flavus = assay: Halo test on plasticized PVC sheeting; type: cell-based; set-up: key to growth under the test sample (GUS): +: no reduction in growth; ±: slight reduction in growth; .-+.: moderate reduction in growth; -: complete reduction in growth
# [4] = tested on: Fusarium oxysporum sp. f.lycopersici; assay: Fungitoxicity in culture media (agar), growth inhibition; type: cell-based; conditions: 50% inhibition of growth, read-out: ED50 (the source's name)
# Experimental: (§1) Acetone solutions of the compound were mixed with an aliquot of distilled water and the fine suspension obtained was mixed with cooled but melted agar medium and poured into Petri dishes.
# (§2) The tested fungi were grown on the solidified media. Growth of the fungus was measured and percent inhibition was calculated by comparing with the appropriate acetone-water controls. Media were usually Martin's or potato-dextrose agar media.
# (§3) ED50 = effective dose, sufficient for the 50% inhibition of growth of the fungus, expressed in p.p.m.
# Rhizoctonia solani = assay: as above; type: cell-based; conditions: 50% inhibition of growth, read-out: ED50 (the source's name)
# Experimental: as §1, §2, §3
# Rhizopus stolonifer = assay: as above; type: cell-based; conditions: 50% inhibition of growth, read-out: ED50 (the source's name)
# Experimental: as §1, §2, §3
# Sclerotinia rolfsil = assay: as above; type: cell-based; conditions: 50% inhibition of growth, read-out: ED50 (the source's name)
# Experimental: as §1, §2, §3
# Rhizoctonia bataticola = assay: as above; type: cell-based; conditions: Macrophomina phaseolina, 50% inhibition of growth, read-out: ED50 (the source's name)
# Experimental: as §1, §2, §3
# Pythium aphanidermatum = assay: as above; type: cell-based; conditions: 50% inhibition of growth, read-out: ED50 (the source's name)
# Experimental: as §1, §2, §3
# [5] = 0.5% in PVC sheeting, brackets = growth partially suppressed
compound,measurement,setting,value
"O=S(=O)(CC(Cl)Cl)c1cc(Cl)ccc1Cl [Example 1, 2,5-dichlorophenyl-β,β'-dichloroethyl sulfone]",Mean disease severity,Venturia inaequalis [1]; 50 p.p.m.,3.5
same,Mean disease severity,Venturia inaequalis [1]; 100 p.p.m.,3.0
same,Mean disease severity,Venturia inaequalis [1]; 500 p.p.m.,1.0
same,growth under the test sample (GUS),Aspergillus niger; 0.5% in PVC sheeting,.-+.
same,Zone of growth inhibition (halo),Aspergillus niger; 1% in PVC sheeting,6 millimetres
same,growth under the test sample (GUS),Aspergillus niger; 1% in PVC sheeting,-
same,growth under the test sample (GUS),Alternaria tenuis; 0.5% in PVC sheeting,-
same,Zone of growth inhibition (halo),Alternaria tenuis; 0.5% in PVC sheeting,11 millimetres
same,growth under the test sample (GUS),Alternaria tenuis; 1% in PVC sheeting,-
same,Zone of growth inhibition (halo),Alternaria tenuis; 1% in PVC sheeting,17 millimetres
same,growth under the test sample (GUS),Penicillium funiculosum; 0.5% in PVC sheeting,+
same,Zone of growth inhibition (halo),Penicillium funiculosum; 1% in PVC sheeting,2.5 millimetres
same,growth under the test sample (GUS),Penicillium funiculosum; 1% in PVC sheeting,.-+.
same,Zone of growth inhibition (halo),Paecilomyces varioti; 0.5% in PVC sheeting,0 millimetres
same,growth under the test sample (GUS),Paecilomyces varioti; 0.5% in PVC sheeting,+
same,Zone of growth inhibition (halo),Paecilomyces varioti; 1% in PVC sheeting,15 millimetres
same,growth under the test sample (GUS),Paecilomyces varioti; 1% in PVC sheeting,-
same,Zone of growth inhibition (halo),Trichoderma viride; 0.5% in PVC sheeting,0 millimetres
same,growth under the test sample (GUS),Trichoderma viride; 0.5% in PVC sheeting,+
same,Zone of growth inhibition (halo),Trichoderma viride; 1% in PVC sheeting,0 millimetres
same,growth under the test sample (GUS),Trichoderma viride; 1% in PVC sheeting,+
same,growth under the test sample (GUS),[2]; 0.5% in PVC sheeting,-
same,Zone of growth inhibition (halo),[2]; [5],5 millimetres
same,Zone of growth inhibition (halo),[2]; 1% in PVC sheeting,12 millimetres
same,growth under the test sample (GUS),[2]; 1% in PVC sheeting,-
same,Disease control,"Venturia inaequalis [3]; Test No.1, inoculum 2.5 ×10^5 /ml, 50 p.p.m.",63.6%
same,Disease control,"Venturia inaequalis [3]; Test No.1, inoculum 2.5 ×10^5 /ml, 100 p.p.m.",97.4%
same,Disease control,"Venturia inaequalis [3]; Test No.1, inoculum 2.5 ×10^5 /ml, 500 p.p.m.",100%
same,Disease control,"Venturia inaequalis [3]; Test No.2, inoculum 5.0 ×10^5 /ml, 50 p.p.m.",98.2%
same,Disease control,"Venturia inaequalis [3]; Test No.2, inoculum 5.0 ×10^5 /ml, 100 p.p.m.",99.5%
same,Disease control,"Venturia inaequalis [3]; Test No.2, inoculum 5.0 ×10^5 /ml, 500 p.p.m.",100%
same,Zone of growth inhibition (halo),Aspergillus flavus; 0.5% in PVC sheeting,0 millimetres
same,growth under the test sample (GUS),Aspergillus flavus; 0.5% in PVC sheeting,.-+.
same,Zone of growth inhibition (halo),Aspergillus flavus; 1% in PVC sheeting,0 millimetres
same,growth under the test sample (GUS),Aspergillus flavus; 1% in PVC sheeting,.-+.
same,IC50,[4],50 µg/mL
same,IC50,Rhizoctonia solani,5 µg/mL
same,IC50,Rhizopus stolonifer,50 µg/mL
same,IC50,Sclerotinia rolfsil,10 µg/mL
same,IC50,Rhizoctonia bataticola,5 µg/mL
same,IC50,Pythium aphanidermatum,10 µg/mL
"O=S(=O)(CC(Cl)(Cl)Cl)c1cc(Cl)ccc1Cl [Example 2, 2,5-dichlorophenyl,β,β',β""-trichloroethyl sulfone]",Mean disease severity,Venturia inaequalis [1]; 50 p.p.m.,5.0
same,Mean disease severity,Venturia inaequalis [1]; 100 p.p.m.,2.9
same,Mean disease severity,Venturia inaequalis [1]; 500 p.p.m.,1.3
same,growth under the test sample (GUS),Aspergillus niger; 0.5% in PVC sheeting,+
same,Zone of growth inhibition (halo),Aspergillus niger; [5],0 millimetres
same,Zone of growth inhibition (halo),Aspergillus niger; 1% in PVC sheeting,0 millimetres
same,growth under the test sample (GUS),Aspergillus niger; 1% in PVC sheeting,+
same,growth under the test sample (GUS),Alternaria tenuis; 0.5% in PVC sheeting,.-+.
same,growth under the test sample (GUS),Alternaria tenuis; 1% in PVC sheeting,-
same,growth under the test sample (GUS),Penicillium funiculosum; 0.5% in PVC sheeting,+
same,Zone of growth inhibition (halo),Penicillium funiculosum; [5],0 millimetres
same,Zone of growth inhibition (halo),Penicillium funiculosum; 1% in PVC sheeting,0 millimetres
same,growth under the test sample (GUS),Penicillium funiculosum; 1% in PVC sheeting,+
same,Zone of growth inhibition (halo),Paecilomyces varioti; 0.5% in PVC sheeting,0 millimetres
same,growth under the test sample (GUS),Paecilomyces varioti; 0.5% in PVC sheeting,+
same,Zone of growth inhibition (halo),Paecilomyces varioti; 1% in PVC sheeting,0 millimetres
same,growth under the test sample (GUS),Paecilomyces varioti; 1% in PVC sheeting,+
same,Zone of growth inhibition (halo),Trichoderma viride; 0.5% in PVC sheeting,0 millimetres
same,growth under the test sample (GUS),Trichoderma viride; 0.5% in PVC sheeting,+
same,Zone of growth inhibition (halo),Trichoderma viride; 1% in PVC sheeting,0 millimetres
same,growth under the test sample (GUS),Trichoderma viride; 1% in PVC sheeting,+
same,growth under the test sample (GUS),[2]; 0.5% in PVC sheeting,.-+.
same,Zone of growth inhibition (halo),[2]; 1% in PVC sheeting,8 millimetres
same,growth under the test sample (GUS),[2]; 1% in PVC sheeting,-
same,Zone of growth inhibition (halo),Aspergillus flavus; 0.5% in PVC sheeting,0 millimetres
same,growth under the test sample (GUS),Aspergillus flavus; 0.5% in PVC sheeting,+
same,Zone of growth inhibition (halo),Aspergillus flavus; 1% in PVC sheeting,0 millimetres
same,growth under the test sample (GUS),Aspergillus flavus; 1% in PVC sheeting,+
same,IC50,[4],50 µg/mL
same,IC50,Rhizoctonia solani,10 µg/mL
same,IC50,Sclerotinia rolfsil,10 µg/mL
same,IC50,Rhizoctonia bataticola,10 µg/mL
same,IC50,Pythium aphanidermatum,5 µg/mL
"O=S(=O)(CC(Cl)c1ccccc1)c1cc(Cl)ccc1Cl (stereo not drawn) [Example 5, 2,5-dichlorophenyl-β-chloro-β-phenylethyl sulfone]",Mean disease severity,Venturia inaequalis [1]; 50 p.p.m.,6.0
same,Mean disease severity,Venturia inaequalis [1]; 100 p.p.m.,2.3
same,Mean disease severity,Venturia inaequalis [1]; 500 p.p.m.,3.5
same,IC50,[4],> 50 µg/mL
same,IC50,Rhizoctonia solani,20 µg/mL
same,IC50,Rhizoctonia bataticola,50 µg/mL
